Laboratory results from EP2257297B1, “COMPOUNDS FOR USE IN THE TREATMENT OF ACNE, SEBORRHOEA AND SEBHORROEIC DERMATITIS, OR FOR REDUCING SEBUM SECRETION” (priority 2008, dated 2009).

Target: T1, human MC5R (Homo sapiens, UniProt P33032)
T1 construct: purchased Perkin Elmer RBXMC5M400UA
Experiment: Human MC5R radioligand binding assay ([125I] NDP-MSH displacement, hMC5R membranes)
Details: hMC5R assay as in Example 102; compounds tested as trifluoroacetate or hydrochloride salts, or as free base
Summary of the method: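 Bound ligand collected by filtration on PEI-soaked GF/A filters and counted. Data fitted to a single-site competition model with fixed Hill coefficient to give EC50.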

T1 sequence (P33032 whole entry): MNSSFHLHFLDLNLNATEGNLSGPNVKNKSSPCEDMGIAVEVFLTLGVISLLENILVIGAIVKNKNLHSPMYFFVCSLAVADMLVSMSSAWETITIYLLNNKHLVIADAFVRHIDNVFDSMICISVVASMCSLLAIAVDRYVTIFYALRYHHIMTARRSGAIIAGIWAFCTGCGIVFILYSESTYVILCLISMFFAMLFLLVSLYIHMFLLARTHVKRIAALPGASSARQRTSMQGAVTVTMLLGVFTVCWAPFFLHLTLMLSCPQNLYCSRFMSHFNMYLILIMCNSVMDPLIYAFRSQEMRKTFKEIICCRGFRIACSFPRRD

`N=C(N)NCCC[C@@H]1N[C@H](CNC(=O)/C=C/c2ccccc2F)CCN(CC(c2ccccc2)c2ccccc2)C1=O` [Compound 194, (E)-N-(((3S,5S)-1-(2,2-diphenylethyl)-3-(3-guanidinopropyl)-2-oxo-1,4-diazepan-5-yl)methyl)-3-(2-fluorophenyl)acrylamide] and `Cc1ccccc1/C=C/C(=O)NC[C@@H]1CCN(CC(c2ccccc2)c2ccccc2)C(=O)[C@H](CCCNC(=N)N)N1` [Compound 195, (E)-N-(((3S,5S)-1-(2,2-diphenylethyl)-3-(3-guanidinopropyl)-2-oxo-1,4-diazepan-5-yl)methyl)-3-o-tolylacrylamide] cannot be ordered by IC50: less than 100 nM for the first, less than 100 nM for the second.

`N=C(N)NCCC[C@@H]1N[C@H](CNC(=O)/C=C/c2ccc(F)cc2)CCN(CC(c2ccccc2)c2ccccc2)C1=O` [Compound 199, (E)-N-(((3S,5S)-1-(2,2-diphenylethyl)-3-(3-guanidinopropyl)-2-oxo-1,4-diazepan-5-yl)methyl)-3-(4-fluorophenyl)acrylamide] and `N=C(N)NCCC[C@@H]1N[C@H](CNC(=O)/C=C/c2ccc(Br)cc2)CCN(CC(c2ccccc2)c2ccccc2)C1=O` [Compound 210, (E)-3-(4-bromophenyl)-N-(((3S,5S)-1-(2,2-diphenylethyl)-3-(3-guanidinopropyl)-2-oxo-1,4-diazepan-5-yl)methyl)acrylamide] cannot be ordered by IC50: less than 100 nM for the first, less than 10 nM for the second.

`N=C(N)NCCC[C@@H]1N[C@H](CNC(=O)/C=C/c2ccc(C(F)(F)F)cc2)CCN(CC(c2ccccc2)c2ccccc2)C1=O` [Compound 200, (E)-N-(((3S,5S)-1-(2,2-diphenylethyl)-3-(3-guanidinopropyl)-2-oxo-1,4-diazepan-5-yl)methyl)-3-(4-(trifluoromethyl)phenyl)acrylamide] and `N=C(N)NCCC[C@@H]1N[C@H](CNC(=O)/C=C/c2c(F)cccc2F)CCN(CC(c2ccccc2)c2ccccc2)C1=O` [Compound 208, (E)-3-(2,6-difluorophenyl)-N-(((3S,5S)-1-(2,2-diphenylethyl)-3-(3-guanidinopropyl)-2-oxo-1,4-diazepan-5-yl)methyl)acrylamide] cannot be ordered by IC50: less than 100 nM for the first, less than 100 nM for the second.

`N=C(N)NCCC[C@@H]1N[C@H](CNC(=O)/C=C/c2c(F)cccc2Cl)CCN(CC(c2ccccc2)c2ccccc2)C1=O` [Compound 209, (E)-3-(2-chloro-6-fluorophenyl)-N-(((3S,5S)-1-(2,2-diphenylethyl)-3-(3-guanidinopropyl)-2-oxo-1,4-diazepan-5-yl)methyl)acrylamide] and `NCCC[C@@H]1N[C@H](CNC(=O)/C=C/c2ccc(F)cc2F)CCN(CC(c2ccccc2)c2ccccc2)C1=O` [Compound 233, (E)-N-(((3S,5S)-3-(3-aminopropyl)-1-(2,2-diphenylethyl)-2-oxo-1,4-diazepan-5-yl)methyl)-3-(2,4-difluorophenyl)acrylamide] cannot be ordered by IC50: less than 100 nM for the first, less than 100 nM for the second.

`NCCC[C@@H]1N[C@H](CNC(=O)/C=C/c2ccc(Cl)cc2)CCN(CC(c2ccccc2)c2ccccc2)C1=O` [Compound 214, (E)-N-(((3S,5S)-3-(3-aminopropyl)-1-(2,2-diphenylethyl)-2-oxo-1,4-diazepan-5-yl)methyl)-3-(4-chlorophenyl)acrylamide] and `Cc1ccc(/C=C/C(=O)NC[C@@H]2CCN(CC(c3ccccc3)c3ccccc3)C(=O)[C@H](CCCN)N2)cc1` [Compound 219, (E)-N-(((3S,5S)-3-(3-aminopropyl)-1-(2,2-diphenylethyl)-2-oxo-1,4-diazepan-5-yl)methyl)-3-p-tolylacrylamide] cannot be ordered by IC50: less than 100 nM for the first, less than 100 nM for the second.

`COc1cc(C(=O)NC[C@@H]2CCN(CC(c3ccccc3)c3ccccc3)C(=O)[C@H](CCCNC(=N)N)N2)c(OC)c2ccccc12` [Compound 215, N-(((3S,5S)-1-(2,2-diphenylethyl)-3-(3-guanidinopropyl)-2-oxo-1,4-diazepan-5-yl)methyl)-1,4-dimethoxy-2-naphthamide] and `N=C(N)NCCC[C@@H]1N[C@H](CNC(=O)c2ccc3cc(N)ccc3c2)CCN(CC(c2ccccc2)c2ccccc2)C1=O` [Compound 218, 6-amino-N-(((3S,5S)-1-(2,2-diphenylethyl)-3-(3-guanidinopropyl)-2-oxo-1,4-diazepan-5-yl)methyl)-2-naphthamide] cannot be ordered by IC50: less than 1000 nM for the first, less than 10000 nM for the second.

`CN(C)C(=N)NCCC[C@@H]1N[C@H](CNC(=O)c2ccc3ccccc3c2)CCN(CC(c2ccccc2)c2ccccc2)C1=O` [Compound 216, N-(((3S,5S)-3-(3-(3,3-dimethylguanidino)propyl)-1-(2,2-diphenylethyl)-2-oxo-1,4-diazepan-5-yl)methyl)-2-naphthamide] and `O=C(NC[C@@H]1CCN(CC(c2ccccc2)c2ccccc2)C(=O)[C@H](CCCNC2CCCCC2)N1)c1ccc2ccccc2c1` [Compound 226, N-(((3S,5S)-3-(3-(cyclohexylamino)propyl)-1-(2,2-diphenylethyl)-2-oxo-1,4-diazepan-5-yl)methyl)-2-naphthamide] cannot be ordered by IC50: less than 100 nM for the first, less than 100 nM for the second.

`NCCC[C@@H]1N[C@H](CNC(=O)/C=C/c2ccc(F)cc2)CCN(CC(c2ccccc2)c2ccccc2)C1=O` [Compound 220, (E)-N-(((3S,5S)-3-(3-aminopropyl)-1-(2,2-diphenylethyl)-2-oxo-1,4-diazepan-5-yl)methyl)-3-(4-fluorophenyl)acrylamide] and `N#Cc1ccc(/C=C/C(=O)NC[C@@H]2CCN(CC(c3ccccc3)c3ccccc3)C(=O)[C@H](CCCN)N2)cc1` [Compound 234, (E)-N-(((3S,5S)-3-(3-aminopropyl)-1-(2,2-diphenylethyl)-2-oxo-1,4-diazepan-5-yl)methyl)-3-(4-cyanophenyl)acrylamide] cannot be ordered by IC50: less than 100 nM for the first, less than 1000 nM for the second.

`NCCC[C@@H]1N[C@H](CNC(=O)c2ccc3cc(F)ccc3c2)CCN(CC(c2ccccc2)c2ccccc2)C1=O` [Compound 221, N-(((3S,5S)-3-(3-aminopropyl)-1-(2,2-diphenylethyl)-2-oxo-1,4-diazepan-5-yl)methyl)-6-fluoro-2-naphthamide] and `Cc1ccc(C(=O)NC[C@@H]2CCN(CC(c3ccccc3)c3ccccc3)C(=O)[C@H](CCCN)N2)cc1C` [Compound 223, N-(((3S,5S)-3-(3-aminopropyl)-1-(2,2-diphenylethyl)-2-oxo-1,4-diazepan-5-yl)methyl)-3,4-dimethylbenzamide] cannot be ordered by IC50: less than 100 nM for the first, less than 1000 nM for the second.

`NCCC[C@@H]1N[C@H](CNC(=O)c2ccc(Cl)c(Cl)c2)CCN(CC(c2ccccc2)c2ccccc2)C1=O` [Compound 224, N-(((3S,5S)-3-(3-aminopropyl)-1-(2,2-diphenylethyl)-2-oxo-1,4-diazepan-5-yl)methyl)-3,4-dichlorobenzamide] and `Cc1cc(C)n(-c2ccc(C(=O)NC[C@@H]3CCN(CC(c4ccccc4)c4ccccc4)C(=O)[C@H](CCCN)N3)cc2)n1` [Compound 243, N-(((3S,5S)-3-(3-aminopropyl)-1-(2,2-diphenylethyl)-2-oxo-1,4-diazepan-5-yl)methyl)-4-(3,5-dimethyl-1H-pyrazol-1-yl)benzamide] cannot be ordered by IC50: less than 100 nM for the first, less than 1000 nM for the second.

`O=C(/C=C/c1ccc(F)cc1)NC[C@@H]1CCN(CC(c2ccccc2)c2ccccc2)C(=O)[C@H](CCCNC2CCCCC2)N1` [Compound 231, (E)-N-(((3S,5S)-3-(3-(cyclohexylamino)propyl)-1-(2,2-diphenylethyl)-2-oxo-1,4-diazepan-5-yl)methyl)-3-(4-fluorophenyl)acrylamide] and `NCCC[C@@H]1N[C@H](CNC(=O)/C=C/c2ccc3ccccc3c2)CCN(CC(c2ccccc2)c2ccccc2)C1=O` [Compound 235, (E)-N-(((3S,5S)-3-(3-aminopropyl)-1-(2,2-diphenylethyl)-2-oxo-1,4-diazepan-5-yl)methyl)-3-(naphthalen-2-yl)acrylamide] cannot be ordered by IC50: less than 10 nM for the first, less than 1000 nM for the second.

`NCCC[C@@H]1N[C@H](CNC(=O)c2ccc(-c3ccc(Cl)cc3)o2)CCN(CC(c2ccccc2)c2ccccc2)C1=O` [Compound 237, N-(((3S,5S)-3-(3-aminopropyl)-1-(2,2-diphenylethyl)-2-oxo-1,4-diazepan-5-yl)methyl)-5-(4-chlorophenyl)furan-2-carboxamide] and `NCCC[C@@H]1N[C@H](CNC(=O)c2cc(-c3ccc(Cl)cc3)on2)CCN(CC(c2ccccc2)c2ccccc2)C1=O` [Compound 240, N-(((3S,5S)-3-(3-aminopropyl)-1-(2,2-diphenylethyl)-2-oxo-1,4-diazepan-5-yl)methyl)-5-(4-chlorophenyl)isoxazole-3-carboxamide] cannot be ordered by IC50: less than 100 nM for the first, less than 100 nM for the second.

`NCCC[C@@H]1N[C@H](CNC(=O)c2ccc(-n3cccc3)cc2)CCN(CC(c2ccccc2)c2ccccc2)C1=O` [Compound 238, N-(((3S,5S)-3-(3-aminopropyl)-1-(2,2-diphenylethyl)-2-oxo-1,4-diazepan-5-yl)methyl)-4-(1H-pyrrol-1-yl)benzamide] and `NCCC[C@@H]1N[C@H](CNC(=O)c2csc(-c3ccccc3)n2)CCN(CC(c2ccccc2)c2ccccc2)C1=O` [Compound 242, N-(((3S,5S)-3-(3-aminopropyl)-1-(2,2-diphenylethyl)-2-oxo-1,4-diazepan-5-yl)methyl)-2-phenylthiazole-4-carboxamide] cannot be ordered by IC50: less than 100 nM for the first, less than 1000 nM for the second.

`NCCC[C@@H]1N[C@H](CNC(=O)C2CCN(c3ccccc3)C2=O)CCN(CC(c2ccccc2)c2ccccc2)C1=O` (stereo partly drawn) [Compound 239, N-(((3S,5S)-3-(3-aminopropyl)-1-(2,2-diphenylethyl)-2-oxo-1,4-diazepan-5-yl)methyl)-2-oxo-1-phenylpyrrolidine-3-carboxamide] and `Cc1ccc(/C=C/C(=O)NC[C@@H]2CCN(CC(c3ccccc3)c3ccccc3)C(=O)[C@H](CCCN)N2)s1` [Compound 255, (E)-N-(((3S,5S)-3-(3-aminopropyl)-1-(2,2-diphenylethyl)-2-oxo-1,4-diazepan-5-yl)methyl)-3-(5-methylthiophen-2-yl)acrylamide] cannot be ordered by IC50: less than 10000 nM for the first, less than 1000 nM for the second.

In the case of `NCCC[C@@H]1N[C@H](CNC(=O)c2cc(-c3ccco3)on2)CCN(CC(c2ccccc2)c2ccccc2)C1=O` [Compound 241, N-(((3S,5S)-3-(3-aminopropyl)-1-(2,2-diphenylethyl)-2-oxo-1,4-diazepan-5-yl)methyl)-5-(furan-2-yl)isoxazole-3-carboxamide], the IC50 is reported as less than 1000 nM.
